{"source": "patent US12714105B2", "about": "“Herbicidal mixtures and compositions and methods of use” (priority 2020, dated 2026)", "assay_type_in_all_cases": "in vivo", "key": {"[1]": {"system": "Broadleaf weeds (dandelions, Oxalis, and white clover)", "assay": "Pre-emergent control of Broadleaf weeds in Kentucky bluegrass (field trial)", "settings": "for Percent Amount of Broadleaf weeds present in Test plots: Percent of SLWC AI's 0, Isoxaben Rate 1130 g ai/ha", "description": "(§1) A trial of formulations of the present invention (dithiopyr, isoxaben, MCPP, 2,4-D, and dicamba, e.g., dithiopyr and SLWC) was carried out and is shown in Table 5, below. The trial was initiated on Mar. 12, 2019 on Kentucky bluegrass. The turf was maintained at a height if 2½ inches and watered (twice weekly to ½ inch). Pre-emergent control of Broadleaf weeds (dandelions, Oxalis, and white clover) was evaluated as a percentage of the area in the test plots (1×1 meter and 3 replicates)."}, "[2]": {"system": "broadleaf weeds (Oxalis, Parsley-Preriot and white clover)", "assay": "Pre-emergent control of broadleaf weeds in Bermuda grass (field trial)", "settings": "for Percent Amount of Broadleaf weeds present in Test plots: Percent of SLWC AI's 0, Isoxaben Rate 1144 g ai/ha", "description": "A trial of formulations of the present invention (dithiopyr, isoxaben, MCPP, 2,4-D, and dicamba, e.g., dithiopyr and SLWC) was carried out and is shown in Table 6, below. The trial was initiated on Mar. 12, 2019 on Bermuda grass. The turf was maintained at a height of 1½ inches and watered (weekly to ½ inch). Pre-emergent control of broadleaf weeds (Oxalis, Parsley-Preriot and white clover) were evaluated as a percentage of the area in the test plots (1×1 meter and 3 replicates)."}, "[3]": {"system": "Broadleaf weeds (dandelions, Oxalis, plantain and white clover)", "assay": "Pre-emergent control of Broadleaf weeds in Tall Fescue (field trial)", "settings": "for Percent Amount of Broadleaf weeds present in Test plots: Percent of SLWC AI's 0, Isoxaben Rate 1144 g ai/ha", "description": "as §1, with “of the formulation” for “of formulations”, “Table 4,” for “Table 5,”, “on Tall Fescue.” for “on Kentucky bluegrass.”, “at the” for “at a”, “height of” for “height if”, “Oxalis, plantain” for “Oxalis,”"}, "[4]": {"system": "Large Crabgrass", "assay": "Pre-emergent control of Large Crabgrass in Kentucky bluegrass turf (field trial)", "description": "A trial of formulations of the present invention (dithiopyr, isoxaben, MCPP, 2,4-D, and dicamba) was carried out and is shown in Table 2, below. The trial was initiated on Mar. 12, 2019 on Kentucky bluegrass. The turf was maintained at a height of 2½ inches, watered (twice weekly to ½ inch) and fertilized at local recommendations (0.5 lbs. once June 15th). Pre-emergent control of Large Crabgrass was evaluated as a percentage of the area in the test plots (1 xl meter and 3 replicates)."}, "[5]": {"system": "Large Crabgrass", "assay": "Pre-emergent control of Large Crabgrass in Tall Fescue turf (field trial)", "description": "A trial of formulations of the present invention (dithiopyr, isoxaben, MCPP, 2,4-D, and dicamba; e.g., dithiopyr and SLWC) was carried out and is shown in Table 3, below. The trial was initiated on Mar. 12, 2019 on Tall Fescue. The turf was maintained at the height of 2½ inches and watered (twice weekly to ½ inch). Pre-emergent control of Large Crabgrass was evaluated as a percentage of the area in the test plots (1 xl meter and 3 replicates)."}, "[6]": {"settings": "69 DA-A, dithiopyr only, Dithiopyr Rate 280 g ai/ha"}, "[7]": {"settings": "83 DA-A, dithiopyr only, Dithiopyr Rate 280 g ai/ha"}, "[8]": {"settings": "111 DA-A, dithiopyr only, Dithiopyr Rate 280 g ai/ha"}, "[9]": {"settings": "125 DA-A, dithiopyr only, Dithiopyr Rate 280 g ai/ha"}, "[10]": {"settings": "139 DA-A, dithiopyr only, Dithiopyr Rate 280 g ai/ha"}, "[11]": {"settings": "161 DA-A, dithiopyr only, Dithiopyr Rate 280 g ai/ha"}, "[12]": {"settings": "191 DA-A, dithiopyr only, Dithiopyr Rate 280 g ai/ha"}}, "data": [{"smiles": "CCC(C)(CC)c1cc(NC(=O)c2c(OC)cccc2OC)on1", "note": "[Isoxaben (Gallery 75 DF), Isoxaben]", "values": [{"measurement": "Percent Amount of Broadleaf weeds present in Test plots", "setting": "[1]; 6 DA-A", "result": 4.3, "unit": "%"}, {"measurement": "Percent Amount of Broadleaf weeds present in Test plots", "setting": "[1]; 29 DA-A", "result": 5, "unit": "%"}, {"measurement": "Percent Amount of Broadleaf weeds present in Test plots", "setting": "[1]; 55 DA-A", "result": 14, "unit": "%"}, {"measurement": "Percent Amount of Broadleaf weeds present in Test plots", "setting": "[1]; 83 DA-A", "result": 9.7, "unit": "%"}, {"measurement": "Percent Amount of Broadleaf weeds present in Test plots", "setting": "[1]; 111 DA-A", "result": 17.3, "unit": "%"}, {"measurement": "Percent Amount of Broadleaf weeds present in Test plots", "setting": "[1]; 125 DA-A", "result": 6.3, "unit": "%"}, {"measurement": "Percent Amount of Broadleaf weeds present in Test plots", "setting": "[1]; 139 DA-A", "result": 7.7, "unit": "%"}, {"measurement": "Percent Amount of Broadleaf weeds present in Test plots", "setting": "[1]; 161 DA-A", "result": 1.7, "unit": "%"}, {"measurement": "Percent Amount of Broadleaf weeds present in Test plots", "setting": "[2]; 6 DA-A", "result": 6.3, "unit": "%"}, {"measurement": "Percent Amount of Broadleaf weeds present in Test plots", "setting": "[2]; 29 DA-A", "result": 8.3, "unit": "%"}, {"measurement": "Percent Amount of Broadleaf weeds present in Test plots", "setting": "[2]; 55 DA-A", "result": 11, "unit": "%"}, {"measurement": "Percent Amount of Broadleaf weeds present in Test plots", "setting": "[2]; 83 DA-A", "result": 3.3, "unit": "%"}, {"measurement": "Percent Amount of Broadleaf weeds present in Test plots", "setting": "[2]; 111 DA-A", "result": 3, "unit": "%"}, {"measurement": "Percent Amount of Broadleaf weeds present in Test plots", "setting": "[2]; 125 DA-A", "result": 0, "unit": "%"}, {"measurement": "Percent Amount of Broadleaf weeds present in Test plots", "setting": "[2]; 139 DA-A", "result": 0.7, "unit": "%"}, {"measurement": "Percent Amount of Broadleaf weeds present in Test plots", "setting": "[2]; 161 DA-A", "result": 0.3, "unit": "%"}, {"measurement": "Percent Amount of Broadleaf weeds present in Test plots", "setting": "[3]; 6 DA-A", "result": 3.3, "unit": "%"}, {"measurement": "Percent Amount of Broadleaf weeds present in Test plots", "setting": "[3]; 29 DA-A", "result": 2.7, "unit": "%"}, {"measurement": "Percent Amount of Broadleaf weeds present in Test plots", "setting": "[3]; 55 DA-A", "result": 2, "unit": "%"}, {"measurement": "Percent Amount of Broadleaf weeds present in Test plots", "setting": "[3]; 83 DA-A", "result": 8.3, "unit": "%"}, {"measurement": "Percent Amount of Broadleaf weeds present in Test plots", "setting": "[3]; 111 DA-A", "result": 2.7, "unit": "%"}, {"measurement": "Percent Amount of Broadleaf weeds present in Test plots", "setting": "[3]; 125 DA-A", "result": 0.7, "unit": "%"}, {"measurement": "Percent Amount of Broadleaf weeds present in Test plots", "setting": "[3]; 139 DA-A", "result": 4, "unit": "%"}, {"measurement": "Percent Amount of Broadleaf weeds present in Test plots", "setting": "[3]; 161 DA-A", "result": 0, "unit": "%"}, {"measurement": "Large Crabgrass, percentage of the area in the test plots", "setting": "[4]; 69 DA-A, isoxaben only, LR (labelled rate)", "result": 0, "unit": "%"}, {"measurement": "Large Crabgrass, percentage of the area in the test plots", "setting": "[4]; 83 DA-A, isoxaben only, LR (labelled rate)", "result": 0, "unit": "%"}, {"measurement": "Large Crabgrass, percentage of the area in the test plots", "setting": "[4]; 111 DA-A, isoxaben only, LR (labelled rate)", "result": 6, "unit": "%"}, {"measurement": "Large Crabgrass, percentage of the area in the test plots", "setting": "[4]; 125 DA-A, isoxaben only, LR (labelled rate)", "result": 15, "unit": "%"}, {"measurement": "Large Crabgrass, percentage of the area in the test plots", "setting": "[4]; 139 DA-A, isoxaben only, LR (labelled rate)", "result": 30, "unit": "%"}, {"measurement": "Large Crabgrass, percentage of the area in the test plots", "setting": "[4]; 161 DA-A, isoxaben only, LR (labelled rate)", "result": 28.3, "unit": "%"}, {"measurement": "Large Crabgrass, percentage of the area in the test plots", "setting": "[4]; 191 DA-A, isoxaben only, LR (labelled rate)", "result": 73.3, "unit": "%"}, {"measurement": "Large Crabgrass, percentage of the area in the test plots", "setting": "[5]; 69 DA-A, isoxaben only (rate not given)", "result": 0, "unit": "%"}, {"measurement": "Large Crabgrass, percentage of the area in the test plots", "setting": "[5]; 83 DA-A, isoxaben only (rate not given)", "result": 0, "unit": "%"}, {"measurement": "Large Crabgrass, percentage of the area in the test plots", "setting": "[5]; 111 DA-A, isoxaben only (rate not given)", "result": 7.7, "unit": "%"}, {"measurement": "Large Crabgrass, percentage of the area in the test plots", "setting": "[5]; 125 DA-A, isoxaben only (rate not given)", "result": 16, "unit": "%"}, {"measurement": "Large Crabgrass, percentage of the area in the test plots", "setting": "[5]; 139 DA-A, isoxaben only (rate not given)", "result": 21.7, "unit": "%"}, {"measurement": "Large Crabgrass, percentage of the area in the test plots", "setting": "[5]; 161 DA-A, isoxaben only (rate not given)", "result": 58.3, "unit": "%"}, {"measurement": "Large Crabgrass, percentage of the area in the test plots", "setting": "[5]; 191 DA-A, isoxaben only (rate not given)", "result": 63.3, "unit": "%"}]}, {"smiles": "CSC(=O)c1c(C(F)F)nc(C(F)(F)F)c(C(=O)SC)c1CC(C)C", "note": "[Dithiopyr (Dimension), Dimethyl 2-(difluoromethyl)-4-(2-methylpropyl)-6-(trifluoromethyl)pyridine-3,5-dicarbothioate]", "values": [{"measurement": "effect of the addition of Dithiopyr to SLWC on the pre-emergent control of broadleaf weeds provided by Isoxaben", "setting": "[1]; in words", "result": "did not affect"}, {"measurement": "effect of the addition of Dithiopyr to SLWC on the pre-emergent control of broadleaf weeds provided by Isoxaben", "setting": "[2]; in words", "result": "did not affect"}, {"measurement": "effect of the addition of Dithiopyr to SLWC on the pre-emergent control of broadleaf weeds provided by Isoxaben", "setting": "[3]; in words", "result": "did not affect"}, {"measurement": "Large Crabgrass, percentage of the area in the test plots", "setting": "[4]; [6]", "result": 0, "unit": "%"}, {"measurement": "Large Crabgrass, percentage of the area in the test plots", "setting": "[4]; [7]", "result": 0, "unit": "%"}, {"measurement": "Large Crabgrass, percentage of the area in the test plots", "setting": "[4]; [8]", "result": 5.7, "unit": "%"}, {"measurement": "Large Crabgrass, percentage of the area in the test plots", "setting": "[4]; [9]", "result": 5, "unit": "%"}, {"measurement": "Large Crabgrass, percentage of the area in the test plots", "setting": "[4]; [10]", "result": 16, "unit": "%"}, {"measurement": "Large Crabgrass, percentage of the area in the test plots", "setting": "[4]; [11]", "result": 26.7, "unit": "%"}, {"measurement": "Large Crabgrass, percentage of the area in the test plots", "setting": "[4]; [12]", "result": 40, "unit": "%"}, {"measurement": "effect of the addition of Dithiopyr to SLWC on the pre-emergent control of Large Crabgrass", "setting": "[4]; in words", "result": "did not affect"}, {"measurement": "Large Crabgrass, percentage of the area in the test plots", "setting": "[5]; [6]", "result": 0, "unit": "%"}, {"measurement": "Large Crabgrass, percentage of the area in the test plots", "setting": "[5]; [7]", "result": 0, "unit": "%"}, {"measurement": "Large Crabgrass, percentage of the area in the test plots", "setting": "[5]; [8]", "result": 0.7, "unit": "%"}, {"measurement": "Large Crabgrass, percentage of the area in the test plots", "setting": "[5]; [9]", "result": 5, "unit": "%"}, {"measurement": "Large Crabgrass, percentage of the area in the test plots", "setting": "[5]; [10]", "result": 7.3, "unit": "%"}, {"measurement": "Large Crabgrass, percentage of the area in the test plots", "setting": "[5]; [11]", "result": 43.3, "unit": "%"}, {"measurement": "Large Crabgrass, percentage of the area in the test plots", "setting": "[5]; [12]", "result": 50, "unit": "%"}, {"measurement": "effect of the addition of Dithiopyr to SLWC on the pre-emergent control of Large Crabgrass", "setting": "[5]; in words", "result": "did not affect"}]}]}
